According to the supplement of paper PMC5908809:

How the values were obtained:
SNK-6 (IL-2 2.5 ng/mL) [1] = assay: drug sensitivity score (DSS) (DSS units); higher = more sensitive; extreme values may be limits of the assay; details: 72 h
KAI3 (IL-2 2.5 ng/mL) [2] = assay: as above; details: 72 h
[3] = test system: normal primary NK cells, pool 3 (3 donors) (IL-2 2.5 ng/mL); assay: as above; details: 72 h
NK-YS (IL-2 2.5 ng/mL) [4] = assay: as above; details: 72 h
[5] = test system: normal primary NK cells, pool 2 (3 donors) (IL-2 2.5 ng/mL); assay: as above; details: 72 h
KHYG-1 (IL-2 2.5 ng/mL) [6] = assay: as above; details: 72 h
DERL-7 (IL-2 2.5 ng/mL) [7] = assay: as above; details: 72 h
NK-92 (IL-2 2.5 ng/mL) [8] = assay: as above; details: 72 h
[9] = test system: normal primary NK cells, pool 1 (3 donors) (IL-2 2.5 ng/mL); assay: as above; details: 72 h
[10] = test system: normal primary NK cells, pool 1 (3 donors), resting (IL-2 0 ng/mL); assay: as above; details: 72 h
IMC-1 (IL-2 20 ng/mL) [11] = assay: as above; details: 72 h
YT (IL-2 2.5 ng/mL) [12] = assay: as above; details: 72 h
NKL (IL-2 2.5 ng/mL) [13] = assay: as above; details: 72 h
SNK-6 (IL-2 2.5 ng/mL) [14] = assay: percent inhibition of viability; higher = more inhibition; details: 72 h
KAI3 (IL-2 2.5 ng/mL) [15] = assay: as above; details: 72 h
[16] = test system: normal primary NK cells, pool 3 (3 donors) (IL-2 2.5 ng/mL); assay: as above; details: 72 h
NK-YS (IL-2 2.5 ng/mL) [17] = assay: as above; details: 72 h
[18] = test system: normal primary NK cells, pool 2 (3 donors) (IL-2 2.5 ng/mL); assay: as above; details: 72 h
KHYG-1 (IL-2 2.5 ng/mL) [19] = assay: as above; details: 72 h
DERL-7 (IL-2 2.5 ng/mL) [20] = assay: as above; details: 72 h
NK-92 (IL-2 2.5 ng/mL) [21] = assay: as above; details: 72 h
[22] = test system: normal primary NK cells, pool 1 (3 donors) (IL-2 2.5 ng/mL); assay: as above; details: 72 h
[23] = test system: normal primary NK cells, pool 1 (3 donors), resting (IL-2 0 ng/mL); assay: as above; details: 72 h
IMC-1 (IL-2 20 ng/mL) [24] = assay: as above; details: 72 h
YT (IL-2 2.5 ng/mL) [25] = assay: as above; details: 72 h
NKL (IL-2 2.5 ng/mL) [26] = assay: as above; details: 72 h
[27] = test system: normal NK cells expanded with K562-aAPC; assay: drug sensitivity score (DSS) (DSS units); higher = more sensitive; extreme values may be limits of the assay; details: 72 h; IL-2 2.5 ng/mL
Experimental: (§1)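 Drug sensitivity and resistance testing on K562-aAPC-expanded normal NK cells: 5 concentrations (10-fold steps over a 10,000-fold range), 72 h at 37 °C, viability by CellTiter-Glo normalised to DMSO and benzethonium chloride controls; DSS from the fitted curve.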

[28] = test system: normal NK cells expanded with K562-aAPC; assay: percent inhibition of viability; higher = more inhibition; details: 72 h, IL-2 2.5 ng/mL
Experimental: as §1

CC(=O)NCC(=O)N1[C@@H]2CC[C@H]1c1ccc(Nc3ncc(C(F)(F)F)c(NC4CCC4)n3)cc12 (max concentration tested 10000 nM)
Details	drug sensitivity score
DERL-7 (IL-2 2.5 ng/mL) [7]	27.3
IMC-1 (IL-2 20 ng/mL) [11]	24.2
KAI3 (IL-2 2.5 ng/mL) [2]	22.9
KHYG-1 (IL-2 2.5 ng/mL) [6]	28.7
NK-92 (IL-2 2.5 ng/mL) [8]	22.1
NK-YS (IL-2 2.5 ng/mL) [4]	21.9
NKL (IL-2 2.5 ng/mL) [13]	22.5
SNK-6 (IL-2 2.5 ng/mL) [1]	31
YT (IL-2 2.5 ng/mL) [12]	15.1
[3]	10
[5]	12
[9]	11
[10]	3.63
[27]	24.6

percent inhibition of viability [%]
Details	1 nM	10 nM	100 nM	1000 nM	10000 nM
DERL-7 (IL-2 2.5 ng/mL) [20]	-3.49	2.07	76.5	79.7	101
IMC-1 (IL-2 20 ng/mL) [24]	1.14	-0.36	54.2	92.5	102
KAI3 (IL-2 2.5 ng/mL) [15]	2	18.3	49.2	85	103
KHYG-1 (IL-2 2.5 ng/mL) [19]	5.24	7.98	82.5	103	105
NK-92 (IL-2 2.5 ng/mL) [21]	-9.89	2.73	54	76.7	104
NK-YS (IL-2 2.5 ng/mL) [17]	-3.49	7.45	62.7	65.7	102
NKL (IL-2 2.5 ng/mL) [26]	-9.97	18.8	54.1	75	104
SNK-6 (IL-2 2.5 ng/mL) [14]	9.63	33.2	82.6	85.3	98.7
YT (IL-2 2.5 ng/mL) [25]	3.79	9.48	23.2	62.2	103
[16]	-18.1	-9.96	2.88	33.6	97.8
[18]	-12.8	1.36	16.8	50.3	96.5
[22]	4.9	-3.44	17	44.7	98.1
[23]	-11.5	-16.5	-21.3	-42.6	91.9
[28]	-3.83	6.05	58.2	91	101

COc1ccc(C[C@H](NC(=O)[C@H](C)NC(=O)CN2CCOCC2)C(=O)N[C@@H](Cc2ccccc2)C(=O)C2(C)CO2)cc1 (stereo in doubt) [ONX-0914] (max concentration tested 10000 nM)
Details	drug sensitivity score
DERL-7 (IL-2 2.5 ng/mL) [7]	32.7
IMC-1 (IL-2 20 ng/mL) [11]	21.7
KAI3 (IL-2 2.5 ng/mL) [2]	32.9
KHYG-1 (IL-2 2.5 ng/mL) [6]	22.3
NK-92 (IL-2 2.5 ng/mL) [8]	31.6
NK-YS (IL-2 2.5 ng/mL) [4]	28.6
NKL (IL-2 2.5 ng/mL) [13]	30.9
SNK-6 (IL-2 2.5 ng/mL) [1]	25.6
YT (IL-2 2.5 ng/mL) [12]	26.3
[3]	26.7
[5]	30.7
[9]	30.5
[10]	31.9
[27]	24.8

percent inhibition of viability [%]
Details	1 nM	10 nM	100 nM	1000 nM	10000 nM
DERL-7 (IL-2 2.5 ng/mL) [20]	6.02	28.7	92.2	101	101
IMC-1 (IL-2 20 ng/mL) [24]	2.14	-0.04	24.1	100	101
KAI3 (IL-2 2.5 ng/mL) [15]	12.7	28.5	93.7	106	102
KHYG-1 (IL-2 2.5 ng/mL) [19]	-0.77	1.13	29.1	104	101
NK-92 (IL-2 2.5 ng/mL) [21]	-8.67	15.8	93.1	106	102
NK-YS (IL-2 2.5 ng/mL) [17]	13.1	15.9	75	105	102
NKL (IL-2 2.5 ng/mL) [26]	10.8	1.76	103	106	102
SNK-6 (IL-2 2.5 ng/mL) [14]	-1.52	17.8	58.1	101	101
YT (IL-2 2.5 ng/mL) [25]	-1.7	3.7	69.5	104	101
[16]	-6.21	2.14	73.6	99.9	100
[18]	-9.54	18.2	87.2	99.6	99.8
[22]	-4.25	8.47	92.5	100	100
[23]	-25.3	21.3	91	96.4	97.3
[28]	6.48	5.84	57.1	101	101
